Measurements reported in ChEMBL document CHEMBL4130419, “Novel chemotypes targeting tubulin at the colchicine binding site and unbiasing P-glycoprotein” (Eur J Med Chem, 2017).

How the values were obtained:
MCF7 = test: Antiproliferative activity against human MCF7 cells after 72 hrs by MTT assay; format: functional, cell-based; conditions: MCF7, 72 h
HepG2 = test: Antiproliferative activity against human HepG2 cells after 72 hrs by MTT assay; format: functional, cell-based; conditions: HepG2, 72 h
HeLa = test: Antiproliferative activity against human HeLa cells after 72 hrs by MTT assay; format: functional, cell-based
SH-SY5Y = test: Antiproliferative activity against human SH-SY5Y cells after 72 hrs by MTT assay; format: functional, cell-based
Sus scrofa = organism: Sus scrofa; test: Inhibition of tubulin polymerization in porcine brain assessed as disruption of microtubule organization after 1 hr by fluorescence polarization assay
[1] = Apparent permeability from apical to basolateral side in MDCK2-MDR1 cells at 75 uM after 2 hrs UV-visible spectroscopy; format: ADME, cell-based, Canis lupus familiaris; conditions: dog, MDCK-MDR1
[2] = Apparent permeability from basolateral to apical side in MDCK2-MDR1 cells at 75 uM after 2 hrs UV-visible spectroscopy; format: ADME, cell-based, Canis lupus familiaris; conditions: dog, MDCK-MDR1
[3] = Efflux ratio of apparent permeability from basolateral to apical over apical to basolateral side in MDCK2-MDR1 cells at 75 uM after 2 hrs by UV-visible spectroscopy; format: ADME, cell-based, Canis lupus familiaris; conditions: dog, MDCK-MDR1

| Compound | IC50 (MCF7) | IC50 (HepG2) | IC50 (HeLa) | IC50 (SH-SY5Y) | inhibition (Sus scrofa) | Papp A→B at 2 h, 75 µM [1] | Papp B→A at 2 h, 75 µM [2] | efflux ratio at 2 h, 75 µM [3] |
| --- | --- | --- | --- | --- | --- | --- | --- | --- |
| COc1ccc(-c2cc(C(F)F)n3ncc(C(=O)Nc4cc(Cl)ccc4O)c3n2)cc1 | 2.2 µM | > 100 µM | 74 µM | 40 µM | Dose-dependent effect | 180 nm/s | 210 nm/s | 1.16 |
| COc1ccc(C2CCCN2CC(=O)Nc2ccccc2-c2ccccc2)cc1 (configuration not stated) | 7 µM | 35.5 µM | 20.8 µM | 8.7 µM | Dose-dependent effect | – | – | – |
| C=CCOc1ccccc1CN(C(=O)CN1CCNC(=O)C1)c1ccc2c(c1)OCO2 | 32 µM | > 100 µM | 66 µM | > 100 µM | Dose-dependent effect | – | – | – |
| COc1cc2c(=O)c(C(=O)c3ccc(C)c(C)c3)cn(Cc3ccc(F)cc3)c2cc1OC | 5.7 µM | 72.4 µM | 36.3 µM | 25.1 µM | Dose-dependent effect | – | – | – |
| COc1cc2c(c(OC)c1OC)-c1ccc(OC)c(=O)cc1[C@@H](NC(C)=O)CC2 [COLCHICINE] | – | 0.042 µM | – | – | – | – | – | – |
| Cc1n[nH]c(O)c1C(c1cccc(OCc2ccc(F)cc2)c1)c1c(O)n[nH]c1C | 8 µM | > 100 µM | 23.9 µM | 43.7 µM | Dose-dependent effect | – | – | – |
| CSc1ccccc1NC(=O)c1cnn2c(C(F)F)cc(-c3ccc(C)cc3)nc12 | 6 µM | 100 µM | 95.5 µM | 57.5 µM | Dose-dependent effect | – | – | – |
| CCCCN1C(=O)c2[nH]nc(-c3ccccc3O)c2C1c1ccc(OCC)cc1 (configuration not stated) | 5.2 µM | 18.3 µM | 21 µM | 22.5 µM | Dose-dependent effect | 630 nm/s | 550 nm/s | 0.87 |
| COc1ccc(C)cc1NC(=O)c1cnn2c(C(F)F)cc(-c3ccc(C)cc3)nc12 | 7 µM | > 100 µM | 15.1 µM | 67.6 µM | Dose-dependent effect | – | – | – |
| CCOC(=O)c1c(C)[nH]c(C)c1C(=O)CSC1=Nc2ccccc2C2CC=NN12 (configuration not stated) | 32 µM | 14.1 µM | 63.2 µM | 3.7 µM | Dose-dependent effect | 760 nm/s | 470 nm/s | 0.62 |
| Cc1cccc(-n2ccnc2SCC(=O)c2ccc3c(c2)CCC(=O)N3)c1 | 66 µM | 91.2 µM | 81.7 µM | 67.6 µM | Dose-dependent effect | – | – | – |
| NC(=O)C1CCN(c2nc(CSc3ccccc3)nc3sc4c(c23)CCCC4)CC1 | 11 µM | 52.5 µM | 45.7 µM | 11.5 µM | Dose-dependent effect | 450 nm/s | 820 nm/s | 1.82 |
| Cc1ccc(NC(=O)Cn2c(C(F)(F)F)nc3ccccc32)c(-c2nc(C3CC3)n[nH]2)c1 | 13 µM | 38.9 µM | 1.6 µM | 0.9 µM | Dose-dependent effect | – | – | – |
| CCCSc1nnc(N2C(=O)C(O)=C(C(=O)c3ccco3)C2c2ccccc2F)s1 (configuration not stated) | 25.2 µM | > 100 µM | 55 µM | 10.3 µM | Dose-dependent effect | – | – | – |
| O=C(CSc1nnc(-c2c[nH]c3ccccc23)n1CC1CCCO1)c1ccc(Cl)s1 (configuration not stated) | 66 µM | 79.4 µM | 45.7 µM | 34.7 µM | Dose-dependent effect | – | – | – |
| CC(=O)Nc1ccc(C2=CC(c3ccc(Cl)cc3Cl)n3nc(CCCO)nc3N2)cc1 (configuration not stated) | 66 µM | 74.1 µM | 63.1 µM | 61.7 µM | Dose-dependent effect | – | – | – |

| Compound | IC50 (MCF7) | IC50 (HepG2) | IC50 (HeLa) | IC50 (SH-SY5Y) | inhibition (Sus scrofa) | Papp A→B at 2 h, 75 µM [1] | Papp B→A at 2 h, 75 µM [2] | efflux ratio at 2 h, 75 µM [3] |
| --- | --- | --- | --- | --- | --- | --- | --- | --- |
| CCc1cccc(NC(=O)c2cnn3c(C(F)F)cc(-c4ccc(C)cc4)nc23)c1 | 9.2 µM | > 100 µM | 95.5 µM | 100 µM | Dose-dependent effect | – | – | – |
| Cc1cccc(-c2nnc(SCC(=O)c3ccc(O)cc3O)n2-c2ccccc2)c1 | 67.2 µM | 33.1 µM | 16 µM | 12.7 µM | Dose-dependent effect | 220 nm/s | 130 nm/s | 0.59 |
| CCC(c1nnc(SCC(=O)c2[nH]c(C)c(C(C)=O)c2C)n1Cc1ccccc1)N(C)C (configuration not stated) | 10 µM | 96.9 µM | 74.1 µM | 37 µM | Dose-dependent effect | – | – | – |
| Cc1ccc(-n2c(SCC(=O)N3CC(=O)Nc4ccccc43)nnc2-c2cccc(C)c2)cc1 | 68 µM | > 100 µM | 83 µM | 72.4 µM | Dose-dependent effect | – | – | – |
| O=C(c1c[nH]c2ccccc12)C(NCc1ccc2c(c1)OCO2)c1ccccc1 (configuration not stated) | 26 µM | 32.4 µM | 22.4 µM | 17.4 µM | Dose-dependent effect | 900 nm/s | 920 nm/s | 1.02 |
| COc1ccc(-n2c(SCC(=O)c3ccc(OC(F)F)cc3)nc3ccccc32)cc1 | 9 µM | 63.9 µM | 37.1 µM | 52.5 µM | Dose-dependent effect | – | – | – |
| Cc1cccc(-n2nc(C)c3c2NC2=C(C(=O)CC(C)(C)C2)C3c2ccc(O)cc2)c1 (configuration not stated) | 25 µM | > 100 µM | 10.7 µM | 70.8 µM | Dose-dependent effect | – | – | – |
| O=C(Cn1cc(CNC2(c3ccccc3F)CCCC2)c2ccccc21)NC1CC1 | 29 µM | > 100 µM | 52.5 µM | > 100 µM | Dose-dependent effect | – | – | – |
| COc1ccc(NS(=O)(=O)c2ccc3c(c2)N(C(C)=O)CC(C)O3)cc1Cl (configuration not stated) | 23 µM | 77.6 µM | 45.7 µM | > 100 µM | Dose-dependent effect | – | – | – |
| CCOc1ccc(-n2c(SCC(=O)N3CCOCC3)nnc2-c2cccc(C)c2)cc1 | 93 µM | > 100 µM | 61.6 µM | > 100 µM | Dose-dependent effect | – | – | – |
| COc1ccc(-c2nc3ccccc3c3nnc(SCc4ncc(C)c(OC)c4C)n23)cc1 | 1.4 µM | > 100 µM | 19 µM | 66 µM | Dose-dependent effect | – | – | – |
| Cc1cc(C)c(O)c(-c2n[nH]c3c2C(c2ccccc2)N(CCCO)C3=O)c1 (configuration not stated) | 54 µM | 48.9 µM | 50.1 µM | 51.3 µM | Dose-dependent effect | – | – | – |
| CCOC(=O)C1CCCN(C(=O)c2cc(-c3ccc(Cl)cc3)nc3ccccc23)C1 (configuration not stated) | 17.4 µM | 100 µM | 54.9 µM | 38 µM | Dose-dependent effect | – | – | – |
| CCOC(=O)c1c(NC(=O)C2CC(=O)Nc3ccccc32)sc(C)c1C (configuration not stated) | 9 µM | > 100 µM | > 100 µM | 67.5 µM | Dose-dependent effect | – | – | – |
| CCOC(=O)c1c(NC(=O)C2=C(C)N=C(S)NC2c2ccc(CC)cc2)sc(C)c1C (configuration not stated) | 26 µM | > 100 µM | 36.3 µM | > 100 µM | Dose-dependent effect | – | – | – |
| Cn1cc(SCC(=O)N2N=C(c3cccs3)CC2c2ccc(F)cc2)c2ccccc21 (configuration not stated) | 37.1 µM | > 100 µM | 44 µM | 11.7 µM | Dose-dependent effect | 390 nm/s | 470 nm/s | 1.2 |
